System: C2C12 cells
Assay: Inhibition of CCPs- and caveolae-mediated endocytosis of CK2.3-Qdots
Type: cell-based, murine
Conditions: then 100 nM CK2.3-Qdots 18 h, confocal
Procedure: C2C12 cells were grown in 35 mm dishes containing 18 mm × 18 mm square coverslips at a cell density of 1 × 10^4 cells/well for two days in DMEM media containing 20% FBS and 1% penicillin/streptomycin and at the end of the 2nd day, cells were serum starved with phenol-free DMEM media supplemented with 1% penicillin/streptomycin, but without FBS for 18 h. Next, we used chlorpromazine from Cayman chemical (Ann Arbor, MI, USA) to inhibit CCPs-mediated endocytosis. […] C2C12 cells were treated with 5 μm of Chlorpromazine in DMEM media supplemented with 10% FBS and 1% penicillin/streptomycin for 24 h [41]. […] C2C12 cells were treated with 50 μm of Lovastatin in phenol-free DMEM without FBS and supplemented only with 1% penicillin/streptomycin for 24 h [41, 42]. […] C2C12 cells were treated with 100 μm of methyl-β-cyclodextrin in phenol-free DMEM without FBS and supplemented only with 1% penicillin/streptomycin for 24 h [43]. […] After 18 h, cells were fixed using 4.4% (w/v) paraformaldehyde purchased from Sigma-Aldrich (St. Louis, MO, USA) for 20 min and permeabilized with 0.05% (w/v) saponin from Sigma-Aldrich (St. Louis, MO, USA) diluted in diH2O, for 10 min on ice. Later the nucleus was stained using 100 μL (0.5 ng/mL) of Hoechst (catalog # 23491-45-4) from Sigma-Aldrich (St. Louis, MO, USA). The coverslips were then mounted on the slides using Airvol [38]. Slides were imaged using Zeiss LSM 710 at 63×/1.4 Plan-Apochromat oil objective.
To inhibit both endocytic pathways we used methyl-β-cyclodextrin (MβCD) [60]. […] C2C12 cells were either left unstimulated or stimulated with the pharmacological inhibitors for 24 h. […] Cells were fixed, and images were collected using a confocal microscope (Figure 11).

Compound: CN(C)CCCN1c2ccccc2Sc2ccc(Cl)cc21 [chlorpromazine, Chlorpromazine]
- effect of inhibitor on uptake of CK2.3-Qdots (chlorpromazine 5 μm, 24 h pre-treatment (CCP inhibitor)): did not affect the uptake

Compound: CC[C@H](C)C(=O)O[C@H]1C[C@@H](C)C=C2C=C[C@H](C)[C@H](CC[C@@H]3C[C@@H](O)CC(=O)O3)[C@H]21 [lovastatin, Lovastatin]
- effect of inhibitor on uptake of CK2.3-Qdots (lovastatin 50 μm, 24 h pre-treatment (caveolae inhibitor)): prevented CK2.3-Qdot®s from entering C2C12 cells

Compound: Methyl-β-cyclodextrin [MβCD]
- effect of inhibitor on uptake of CK2.3-Qdots (methyl-β-cyclodextrin 100 μm, 24 h pre-treatment (CCP and caveolae inhibitor)): prevented CK2.3-Qdot®s from entering C2C12 cells
